One experiment concerns the target EED (Homo sapiens, UniProt O75530). As to the kind of experiment: EED TR-FRET Binding Assay (modified LanthaScreen competition assay). The method in brief: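 Competition binding in a modified LanthaScreen format, in 20 mM Tris-HCl pH 7.5, 200 mM NaCl, 0.01% Tween-20, 10 uM DTT and 0.05% BSA. Reactions ran 1 hour at 25° C before TR-FRET detection.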
Background: TR-FRET usually uses a lanthanide donor and a delayed reading to cut background.

Experiment [1] has as its system H3K27me3 in OCILY19 cells. Kind of experiment: H3K27me3 AlphaLISA assay in OCILY19 cells. Format: cell-based. As to conditions: Homo sapiens, OCI-LY19, 144 h, 6 days with compound, read-out: OCILY-19 IC50. As to the method:
(§1) 5,000 cells were plated into each well of 96-well Corning CellBing cell culture plates and incubated overnight at 37° C. in a humidified CO2 incubator. […] The cell culture plates were then incubated for 6 more days. H3K27me3 AlphaLISA assay was performed on the cell culture samples by using AlphaLISAR® H3K27me3 Cellular Detection Kit (PerkinElmer) and 96-well white half-area plates (PerkinElmer).

For a further experiment, the system named is H3K27me3 in G401 cells. Kind of experiment: H3K27me3 AlphaLISA assay in G401 cells. Particulars: Homo sapiens, G-401, 144 h, 6 days with compound. It is filed as cell-based. As to the method: as §1, with “G401 cells (ATCC catalog # CRL-1441) were maintained in McCoy's 5a medium (ATCC) supplemented with 10% heat-inactivated FBS (HyClone) at 37° C. in a humidified CO2 incubator. OCILY19 cells (DSMZ catalog #ACC 528) were maintained in IMDM (Invitrogen) supplemented with 10% human serum (Sigma) at 37° C. in a humidified CO2 incubator. 5,000” for “5,000”

Another experiment has as its system Pfeiffer cells. Kind of experiment: CTG cell viability assay (CellTiter-Glo). Format: cell-based. Particulars: Homo sapiens, 240 h; Pfeiffer cells, 10 days with compound, CellTiter-Glo; read-out: Cell Proliferation IC50. On the procedure:
1,000 cells were plated into each well of 96-well Corning CellBing cell culture plates and incubated overnight at 37° C. in a humidified CO2 incubator. […] The cell culture plates were then incubated for 10 more days. CTG cell viability assay was performed on the cell culture samples by using CellTiter-Glo® Luminescent Cell Viability Assay Kit (Promega).
Background: Cellular ATP, detected with luciferase, serves as a proxy for viable cell number.

Structures are written as SMILES.

Sequence of EED (O75530 whole entry): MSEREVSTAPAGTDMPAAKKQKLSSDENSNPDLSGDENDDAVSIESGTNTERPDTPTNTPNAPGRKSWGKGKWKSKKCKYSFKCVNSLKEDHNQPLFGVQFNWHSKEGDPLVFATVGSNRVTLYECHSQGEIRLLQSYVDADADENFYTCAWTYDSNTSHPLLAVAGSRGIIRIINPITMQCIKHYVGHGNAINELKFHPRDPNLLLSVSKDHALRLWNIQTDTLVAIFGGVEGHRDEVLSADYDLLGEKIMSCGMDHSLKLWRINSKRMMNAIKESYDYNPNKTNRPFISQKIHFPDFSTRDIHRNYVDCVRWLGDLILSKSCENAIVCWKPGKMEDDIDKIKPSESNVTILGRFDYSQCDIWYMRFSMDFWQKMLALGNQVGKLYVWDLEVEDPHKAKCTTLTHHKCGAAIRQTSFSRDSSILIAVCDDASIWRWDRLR

Consider `Cc1n[nH]c(C)c1S(=O)(=O)N1CCN(C(=O)c2cccc3c([C@H]4CN(C5CCc6cccc(F)c65)C[C@@H]4N(C)C)cn(C)c23)CC1` (mixture of isomers) [Example 136, rac-{3-[(3S,4R)-4-(dimethylamino)-1-(7-fluoro-2,3-dihydro-1H-inden-1-yl)pyrrolidin-3-yl]-1-methyl-1H-indol-7-yl}[4-(3,5-dimethyl-1H-pyrazole-4-sulfonyl)piperazin-1-yl]methanone], for which the IC50 came to 2.05 nM on EED, 617 nM in experiment [1], 332 nM in the experiment on H3K27me3 in G401 cells and 1520 nM with Pfeiffer cells.

As to `CN(C)[C@H]1CN(C2CCc3cccc(F)c32)C[C@@H]1c1cn(C)c2c(C(=O)N3CC(F)C3)cccc12` (mixture of isomers) [Example 103, rac-{3-[(3S,4R)-4-(dimethylamino)-1-(7-fluoro-2,3-dihydro-1H-inden-1-yl)pyrrolidin-3-yl]-1-methyl-1H-indol-7-yl}(3-fluoroazetidin-1-yl)methanone], the IC50 was determined as 1.01 nM at EED, 183 nM in experiment [1], 30.6 nM with H3K27me3 in G401 cells and 64.8 nM with Pfeiffer cells.

Consider `CN(C)[C@H]1CN(C2CCc3cccc(F)c32)C[C@@H]1C1CCN(c2cccnc2)CC1` (mixture of isomers) [Example 149, rac-(3R,4S)-1-(7-fluoro-2,3-dihydro-1H-inden-1-yl)-N,N-dimethyl-4-[1-(pyridin-3-yl)piperidin-4-yl]pyrrolidin-3-amine], for which the IC50 on EED was 2.58 nM; in experiment [1], 1140 nM; in the experiment with H3K27me3 in G401 cells, 636 nM; in the experiment on Pfeiffer cells it was 970 nM.

Take `CN(C)[C@@H]1CN(C2CCc3cccc(F)c32)C[C@H]1c1ccc(Br)cc1` (mixture of isomers) [Example 6, rac-(3S,4R)-4-(4-bromophenyl)-1-(7-fluoro-2,3-dihydro-1H-inden-1-yl)-N,N-dimethylpyrrolidin-3-amine]: the IC50 at EED stood at 4.77 nM; in experiment [1], 1760 nM; in the experiment on H3K27me3 in G401 cells, 244 nM; in the experiment with Pfeiffer cells it was 3300 nM.

With `CN(C)[C@H]1CN(C2CCc3cccc(F)c32)C[C@@H]1c1cn(C)c2c(C(=O)N3CC(O)C3)cccc12` (mixture of isomers) [Example 106, rac-{3-[(3S,4R)-4-(dimethylamino)-1-(7-fluoro-2,3-dihydro-1H-inden-1-yl)pyrrolidin-3-yl]-1-methyl-1H-indol-7-yl}(3-hydroxyazetidin-1-yl)methanone], the IC50 on EED came to 0.782 nM; in experiment [1] it was 69.5 nM; with H3K27me3 in G401 cells, 34.4 nM; with Pfeiffer cells, 74.9 nM.

Consider `CN(C)[C@@H]1CN(C2CCc3cccc(F)c32)C[C@H]1c1ccc(N2CCN(C(=O)CS(N)(=O)=O)CC2)nc1` (mixture of isomers) [Example 160, rac-2-(4-{5-[(3R,4S)-4-(dimethylamino)-1-(7-fluoro-2,3-dihydro-1H-inden-1-yl)pyrrolidin-3-yl]pyridin-2-yl}piperazin-1-yl)-2-oxoethane-1-sulfonamide], for which the IC50 came out at 1.06 nM on EED, 152 nM in experiment [1], 190 nM in the experiment with H3K27me3 in G401 cells and 301 nM in the experiment with Pfeiffer cells.

On to `CN(C)[C@@H]1CN(C2CCc3cccc(F)c32)C[C@H]1c1ccc(-c2cnn(CC(N)=O)c2)nc1` (mixture of isomers) [Example 158, rac-2-(4-{5-[(3R,4S)-4-(dimethylamino)-1-(7-fluoro-2,3-dihydro-1H-inden-1-yl)pyrrolidin-3-yl]pyridin-2-yl}-1H-pyrazol-1-yl)acetamide], for which the IC50 at EED turned out to be 1.37 nM; in experiment [1], 87.2 nM; with H3K27me3 in G401 cells, 127 nM; with Pfeiffer cells it was 385 nM.

On to `CN(C)[C@H]1CN(C2CCc3cccc(F)c32)C[C@@H]1c1cn(C)c2cc(C(=O)N3CC(O)C3)ccc12` (mixture of isomers) [Example 107, rac-{3-[(3S,4R)-4-(dimethylamino)-1-(7-fluoro-2,3-dihydro-1H-inden-1-yl)pyrrolidin-3-yl]-1-methyl-1H-indol-6-yl}(3-hydroxyazetidin-1-yl)methanone], for which the IC50 was found to be 1.08 nM on EED, 497 nM in experiment [1], 84 nM in the experiment on H3K27me3 in G401 cells and 284 nM in the experiment with Pfeiffer cells.

For `CN(C)[C@H]1CN(C2CCc3cccc(F)c32)C[C@@H]1C1CCN(c2ccc(C(N)=O)nn2)CC1` (mixture of isomers) [Example 165, rac-6-{4-[(3S,4R)-4-(dimethylamino)-1-(7-fluoro-2,3-dihydro-1H-inden-1-yl)pyrrolidin-3-yl]piperidin-1-yl}pyridazine-3-carboxamide], the IC50 at EED was 0.48 nM; in experiment [1], 272 nM; with H3K27me3 in G401 cells, 55.9 nM; in the experiment on Pfeiffer cells it was 286 nM.

Turning to `CN(C)[C@H]1CN(C2CCc3cccc(F)c32)C[C@@H]1c1cn(C)c2c(C(=O)N3CCNCC3)cccc12` (mixture of isomers) [Example 119, rac-{3-[(3S,4R)-4-(dimethylamino)-1-(7-fluoro-2,3-dihydro-1H-inden-1-yl)pyrrolidin-3-yl]-1-methyl-1H-indol-7-yl}(piperazin-1-yl)methanone], the IC50 on EED amounted to 1.99 nM; in experiment [1], 214 nM; in the experiment with H3K27me3 in G401 cells, 120 nM; in the experiment with Pfeiffer cells, 247 nM.

Regarding `CN(C)[C@H]1CN(C2CCc3cccc(F)c32)C[C@@H]1c1cn(C)c2c(C(=O)N3CCN(S(=O)(=O)N(C)C)CC3)cccc12` (mixture of isomers) [Example 124, rac-4-{3-[(3S,4R)-4-(dimethylamino)-1-(7-fluoro-2,3-dihydro-1H-inden-1-yl)pyrrolidin-3-yl]-1-methyl-1H-indole-7-carbonyl}-N,N-dimethylpiperazine-1-sulfonamide], the IC50 at EED stood at 1.56 nM; in experiment [1] it was 207 nM; in the experiment with H3K27me3 in G401 cells it was 86.4 nM; in the experiment on Pfeiffer cells, 349 nM.

As for `CNC(=O)Cn1cc(-c2ccc([C@@H]3CN(C4CCc5cccc(F)c54)C[C@H]3N(C)C)cn2)cn1` (mixture of isomers) [Example 161, rac-2-(4-{5-[(3R,4S)-4-(dimethylamino)-1-(7-fluoro-2,3-dihydro-1H-inden-1-yl)pyrrolidin-3-yl]pyridin-2-yl}-1H-pyrazol-1-yl)-N-methylacetamide], the IC50 at EED is 0.669 nM; in experiment [1], 571 nM; with H3K27me3 in G401 cells, 151 nM; in the experiment with Pfeiffer cells, 293 nM.

Take `CN(C)[C@H]1CN(C2CCc3cccc(F)c32)C[C@@H]1c1cn(C)c2c(C(=O)N3CC(S(C)(=O)=O)C3)cccc12` (mixture of isomers) [Example 110, rac-{3-[(3S,4R)-4-(dimethylamino)-1-(7-fluoro-2,3-dihydro-1H-inden-1-yl)pyrrolidin-3-yl]-1-methyl-1H-indol-7-yl}[3-(methanesulfonyl)azetidin-1-yl]methanone]: the IC50 at EED came to 1.05 nM; in experiment [1] it was 379 nM; in the experiment on H3K27me3 in G401 cells, 225 nM; with Pfeiffer cells, 111 nM.

Regarding `CN(C)C(=O)c1ccc2c([C@H]3CN(C4CCc5cccc(F)c54)C[C@@H]3N(C)C)cn(C)c2c1` (mixture of isomers) [Example 87, rac-3-[(3S,4R)-4-(dimethylamino)-1-(7-fluoro-2,3-dihydro-1H-inden-1-yl)pyrrolidin-3-yl]-N,N,1-trimethyl-1H-indole-6-carboxamide], the IC50 at EED is 0.481 nM; in experiment [1], 178 nM; in the experiment on H3K27me3 in G401 cells, 62.6 nM; in the experiment with Pfeiffer cells it was 94.1 nM.

As for `CNC(=O)Cn1cc(-c2ccc([C@H]3CN(C4CCc5cccc(F)c54)C[C@@H]3N(C)C)cc2)cn1` (mixture of isomers) [Example 72, rac-2-(4-{4-[(3S,4R)-4-(dimethylamino)-1-(7-fluoro-2,3-dihydro-1H-inden-1-yl)pyrrolidin-3-yl]phenyl}-1H-pyrazol-1-yl)-N-methylacetamide], the IC50 worked out at 0.923 nM at EED, 132 nM in experiment [1], 39.9 nM in the experiment with H3K27me3 in G401 cells and 121 nM in the experiment on Pfeiffer cells.

The values are drawn from patent US9957274B2, “Indane inhibitors of EED and methods of their use” (AbbVie Inc., priority 2016, dated 2018).
